Data from patent US8669378B2, “Process for synthesizing epicconone analogs” (Universite de Rouen, priority 2009, dated 2014).

Key:
[1] = Fluorescence of the adducts with butylamine in acetonitrile; assay type: physicochemical; design: Δ Stokes: unit not given here; conditions: Bioconjugated molecule (BuNH2) in CH3CN; for Δ Stokes: emission minus excitation wavelength; for λ fluo (λ excitation) (nm): excitation at maximum-absorption wavelength; for Intensity normalized to 50 μM: fluorescence intensity
Experimental: (§1) Apparatus: • Acetonitrile: VWR HPLC quality • Micropipette: 5 μl, 10 μl, 200 μl, 1000 μl, • Eppendorf: Safe lock tube PCR • UV cuvette: Varian-Quartz 10 mm thick • Fluorescence cuvette: Hellma-Quartz 10 mm thick • Vortex: Bender & Hobein-Genie 2 • Centrifuge: Baky Bug • Absorbance spectrophotometer: Varian-Cary 50 scan • Fluorescence spectrophotometer: Varian-Cary Eclipse • Thermostated bath: Varian-Cary single cell peltier accessory Stock Solution:
(§2) Approximately exactly 1 to 2 mg of compound Ia-Io are weighed out in a 1.5 mL Eppendorf tube. The stock solutions are then prepared by adding exactly 1 mL of acetonitrile and the Eppendorf tubes are then stored protected from light.
Two protocols were implemented for the fluorescence tests. • For compounds Ii-Ik: 125 μL of the preceding solution (absorbance solution) are diluted to 1.25 mL by adding 1125 μl of acetonitrile to a fluorescence cuvette. The analysis is then performed on the fluorescence spectrophotometer by excitation at the respective maximum-absorption wavelengths. • For compounds Ia-Ih and Il-Io: 1250 μl of the preceding solution (absorbance) are placed in a fluorescence cuvette. The analysis is then performed on the fluorescence spectrophotometer by excitation at the respective maximum-absorption wavelengths.

[2] = Photobleaching of stained standard proteins in gel under UV transilluminator; assay type: physicochemical; conditions: protein-stained gel, first-order exponential decay fit, deduced from FIG. 1
Experimental: The compounds were dissolved at 10 mg/mL in DMSO. The stock solutions obtained were diluted to 1 mg/mL in water and divided into 100 μL aliquots for storage. All the products and aliquots were stored at −80° C.
Standard proteins (SDS labeling kit-low molecular weight sold by GE, 17-0446-01) were diluted in an LDS buffer (250 μL Invitrogen 4×LDS buffer, 100 μL of 1 M DDT, 650 μL of water) to create serial dilutions ranging from 128 ng/STI band to 125 pg/STI band.
5 μL of each protein solution were loaded onto NuPAGE® Novex® 12% bis-tris gels (1.0 mm thick, 12 wells, Invitrogen NP0342BOX). The gels were subjected to a current of 150 V for approximately 65 minutes using MES buffer (50 mM MES, 50 mM tris, 1 mM EDTA, 0.1% SDS, pH 7.3) so that the buffer front arrives just up to the gel. After eluting the dye, the gels were fixed for 1 to 17 hours (100 mL of fixing solution with 15% EtOH (v/v) and 1% citric acid) in individual lanes. The fixing solution used was replaced with fresh solution one hour after staining. The gels were stained for 1 hour in 50 mL of sodium borate buffer at 100 mM (pH 10.9) containing either […] of LavaPurple gel dye (Fluorotechnics; LP-011005) or one of the test compounds (50 μL for a 1 mg/mL solution). The gels were treated with 100 mL of 15% ethanol and then washed with 100 mL of fixing solution for 30 minutes.
Imaging was performed using a Typhoon Trio imager (excitation: 532 nm, emission filter: 610BP30, 540 PMT, resolution: 100 μm) using a normal sensitivity. The recorded image corresponds to the scan at time zero. The gels were then placed in a UV transilluminator for 60, 146, 240, 330, 630 and 990 seconds (total exposure time), a Typhoon scanner image being recorded between each exposure. The volumes of the bands were analyzed using the Image-Quant TL software, and all the band volumes were normalized with phosphorylase B. The photobleaching was analyzed by graphically representing the band volumes as a function of the exposure time (GraphPad Prism v4 software) and by fitting the curve to a first-order exponential decay to determine a pseudofirst-order rate constant.
FIG. 1 represents the decrease of the normalized residual signal of compounds (Ii), (Ij), (Ik), (In) and (Io) according to the invention and of epicocconone.
From this FIGURE, the half-life times of the compounds may be deduced: […]

[3] = Absorbance of the adducts with butylamine in acetonitrile; assay type: physicochemical; conditions: Bioconjugated molecule (BuNH2) in CH3CN; for λ UV (nm), second maximum: longer-wavelength absorption maximum, used for excitation; for λ UV (nm), first maximum: shorter-wavelength absorption maximum
Experimental: as §1, §2
30 μl of stock solution are placed in a 1.5 mL Eppendorf tube. At room temperature, 10 μl (or 30 μl in the case of Ik) of a 0.15 M solution of butylamine/acetonitrile are added and the medium is stirred by vortex and then centrifuged. After diluting to 1 mL by adding 960 μl of acetonitrile (or 940 μl in the case of Ik), the clear solution is transferred into a UV cuvette and then made up to 2 mL with acetonitrile. The analysis is then performed after producing a “blank” spectrum with a pure acetonitrile solution.

[4] = cited from earlier work
[5] = water and lipid bilayers; cited from earlier work

Compound	Δ Stokes [1]	λ fluo (λ excitation) (nm) [1] [nm]	Intensity normalized to 50 μM [1]	Half-life time [2] [min]	λ UV (nm), second maximum [3] [nm]	λ UV (nm), first maximum [3] [nm]	fluorescence emission wavelength of enamine adduct ([4]; adduct with amine functions, UV-Vis radiation, for example at 395 nm or 520 nm)	Stokes shift ([4]; difference between absorption and emission wavelength)	solubility [5]
CC1(C)CC2=CC3=C(C(=O)/C=C(\O)c4ccc5ccccc5c4)C(=O)OC3(C)C(=O)C2=CO1 (stereo not drawn) [Io, 3-(1-hydroxy-3-naphtalen-2-yl-3-oxopropenyl)-6,6,9a-trimethyl-5,6-dihydro-9aH-furo[3,2-g]isochromene-2,9-dione]	89	609	4320	44.7	520	364	–	–	–
C/C=C/C=C/C=C/C(=O)/C=C(\O)C1=C2C=C3C[C@@H](CO)OC=C3C(=O)[C@@]2(C)OC1=O [epicocconone, 5,6-dihydro-3-[(1Z,4E,6E,8E)-1-hydroxy-3-oxo-1,4,6,8-decatetraenyl]-6-hydroxymethyl-9a-methyl-2H-furo[3,2g][2]benzopyran-2,9-(9aH)-dione, reference compound]	95	610	3950	11.3	515	388	about 600 nm	about 100 nm	good solubility both in water and in lipid bilayers
